Measured values taken from patent publication US10138260B2, “Compounds of phosphinanes and azaphosphinanes, a process for their preparation and pharmaceutical compositions containing them” (LES LABORATOIRES SERVIER, priority 2016, dated 2018).
Where a name gives a salt, the structure may show the parent alone.

Target: T1, TAFIa (Homo sapiens, UniProt Q96IY4)
T1 sequence (Q96IY4 115-423): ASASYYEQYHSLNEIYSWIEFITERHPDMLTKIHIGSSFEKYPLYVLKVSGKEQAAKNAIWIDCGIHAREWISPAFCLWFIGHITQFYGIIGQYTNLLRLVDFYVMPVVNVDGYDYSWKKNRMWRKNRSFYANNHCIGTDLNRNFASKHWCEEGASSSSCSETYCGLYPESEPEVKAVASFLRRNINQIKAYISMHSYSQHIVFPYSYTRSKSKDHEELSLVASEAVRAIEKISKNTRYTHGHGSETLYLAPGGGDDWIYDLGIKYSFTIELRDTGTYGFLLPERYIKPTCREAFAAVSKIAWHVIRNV
Test: Inhibition of TAFIa (hippuryl-Arg test)
Assay type: biochemical
Conditions: TAFIa 2 nM, hippuryl-arginine 5 mM, 45 minutes, relative to control containing the carrier; for inhibition at 0.01 µM: compound at 10 nM; for inhibition at 0.02 µM: compound at 20 nM
Experimental: Human TAFI (4 nM) is incubated with human thrombin (10 nM) and human thrombomodulin (5 nM) in the presence of calcium (10 mM). After incubation for 20 minutes, the activation reaction is stopped by addition of PPACK (1 μM final), an irreversible thrombin inhibitor.
The reactions take place in Hepes buffer (25 mM Hepes, 137 mM NaCl, 3.5 mM KCl)+0.1% bovine albumin, pH 7.4 at 28° C. and with stirring.
The test compound is added to the solution of TAFIa (2 nM) and incubated for 45 minutes in the presence of hippuryl-arginine (5 mM). The reaction is stopped by addition of hydrochloric acid (1M) neutralised subsequently with sodium hydroxide (1M), and then the mixture is buffered with disodium hydroxyphosphate (1M pH 7.4). […] The reaction mixture is stirred (vortex) and then centrifuged. The supernatant is transferred to a 96-well microplate, and the absorbance is measured using a spectrophotometer at 405 nm (Spectramax plus, Molecular Devices).
The OD value of a well containing the reagents without TAFI is subtracted from all the OD values measured. The percentage inhibition of TAFIa at a given concentration of the test compound is determined by means of the following formula: % inhibition=100−[(OD compound×100)/OD carrier]
The compounds are evaluated at 10 nM and 20 nM under the experimental conditions described above and the results are expressed as the percentage inhibition relative to a control containing the carrier in the absence of compound.

Cn1cncc1-c1cc(O)ccc1CN1CCP(=O)(O)[C@](CCCCN)(C(=O)O)C1 [Example 246, (3S)-3-(4-Aminobutyl)-4-hydroxy-1-[[4-hydroxy-2-(3-methylimidazol-4-yl)phenyl]methyl]-4-oxo-1,4-azaphosphinane-3-carboxylic acid, hydrobromide]
inhibition at 0.01 µM: 72%
inhibition at 0.02 µM: 86%

NCCCCC1(C(=O)O)CN(Cc2ccccc2-c2ccc(Cl)c(Cl)c2)CCP1(=O)O (stereo not drawn) [Example 175, 3-(4-AMINOBUTYL)-1-[[2-(3,4-DICHLOROPHENYL)PHENYL]METHYL]-4-HYDROXY-4-OXO-1,4-AZAPHOSPHINANE-3-CARBOXYLIC ACID]
inhibition at 0.01 µM: 55%
inhibition at 0.02 µM: 77%

NCCCCC1(C(=O)O)CN(Cc2ccc(Cl)cc2-c2ccc(Cl)cc2)CCP1(=O)O (stereo not drawn) [Example 113, 3-(4-AMINOBUTYL)-1-[[4-CHLORO-2-(4-CHLOROPHENYL)PHENYL]METHYL]-4-HYDROXY-4-OXO-1,4-AZAPHOSPHINANE-3-CARBOXYLIC ACID]
inhibition at 0.01 µM: 68%
inhibition at 0.02 µM: 90%

NCCCC[C@@]1(C(=O)O)CN(Cc2ccc(F)cc2-c2ccc(F)c(O)c2)CCP1(=O)O [Example 251, (3S)-3-(4-AMINOBUTYL)-1-[[4-FLUORO-2-(4-FLUORO-3-HYDROXYPHENYL)-PHENYL]METHYL]-4-HYDROXY-4-OXO-1,4-AZAPHOSPHINANE-3-CARBOXYLIC ACID]
inhibition at 0.01 µM: 70%
inhibition at 0.02 µM: 90%

Cn1nccc1-c1cc(O)ccc1CN1CCP(=O)(O)[C@](CCCCN)(C(=O)O)C1 [Example 247, (3S)-3-(4-AMINOBUTYL)-4-HYDROXY-1-[[4-HYDROXY-2-(2-METHYLPYRAZOL-3-YL)PHENYL]METHYL]-4-OXO-1,4-AZAPHOSPHINANE-3-CARBOXYLIC ACID]
inhibition at 0.01 µM: 85%
inhibition at 0.02 µM: 89%

Cc1ncc(-c2cc(O)ccc2CN2CCP(=O)(O)[C@](CCCCN)(C(=O)O)C2)n1C [Example 249, (3S)-3-(4-AMINOBUTYL)-1-[[2-(2,3-DIMETHYLIMIDAZOL-4-YL)-4-HYDROXYPHENYL]METHYL]-4-HYDROXY-4-OXO-1,4-AZAPHOSPHINANE-3-CARBOXYLIC ACID]
inhibition at 0.01 µM: 88%
inhibition at 0.02 µM: 94%

Cc1ccc(-c2cc(Cl)ccc2CN2CCP(=O)(O)[C@](CCCCN)(C(=O)O)C2)cc1 [Example 218, (3S)-3-(4-AMINOBUTYL)-1-[[4-CHLORO-2-(4-METHYLPHENYL)PHENYL]METHYL]-4-HYDROXY-4-OXO-1,4-AZAPHOSPHINANE-3-CARBOXYLIC ACID]
inhibition at 0.01 µM: 67%
inhibition at 0.02 µM: 83%

NCCCC[C@@]1(C(=O)O)CN(Cc2ccccc2-c2cncnc2)CCP1(=O)O [Example 182, (3S)-3-(4-AMINOBUTYL)-4-HYDROXY-4-OXO-1-[(2-PYRIMIDIN-5-YLPHENYL)-METHYL]-1,4-AZAPHOSPHINANE-3-CARBOXYLIC ACID]
inhibition at 0.01 µM: 81%
inhibition at 0.02 µM: 95%

Cc1ccc(-c2cc(O)ccc2CN2CCP(=O)(O)[C@](CCCCN)(C(=O)O)C2)cc1 [Example 223, (3S)-3-(4-AMINOBUTYL)-4-HYDROXY-1-[[4-HYDROXY-2-(4-METHYLPHENYL)-PHENYL]METHYL]-4-OXO-1,4-AZAPHOSPHINANE-3-CARBOXYLIC ACID]
inhibition at 0.01 µM: 71%
inhibition at 0.02 µM: 83%

NCCCC[C@@]1(C(=O)O)CN(Cc2ccc(O)cc2-c2cccs2)CCP1(=O)O [Example 227, (3S)-3-(4-AMINOBUTYL)-4-HYDROXY-1-[(4-HYDROXY-2-THIOPHEN-2-YLPHENYL)METHYL]-4-OXO-1,4-AZAPHOSPHINANE-3-CARBOXYLIC ACID]
inhibition at 0.01 µM: 84%
inhibition at 0.02 µM: 91%

NCCCCC1(C(=O)O)CN(Cc2ccccc2-c2nccs2)CCP1(=O)O (stereo not drawn) [Example 108, 3-(4-AMINOBUTYL)-4-HYDROXY-4-OXO-1-[[2-(1,3-THIAZOL-2-YL)PHENYL]-METHYL]-1,4-AZAPHOSPHINANE-3-CARBOXYLIC ACID]
inhibition at 0.01 µM: 25%
inhibition at 0.02 µM: 29%

NCCCC[C@@]1(C(=O)O)CN(Cc2ccccc2-c2cc[nH]c(=O)c2)CCP1(=O)O [Example 204, (3S)-3-(4-AMINOBUTYL)-4-HYDROXY-4-OXO-1-[[2-(2-OXO-1H-PYRIDIN-4-YL)PHENYL]METHYL]-1,4-AZAPHOSPHINANE-3-CARBOXYLIC ACID]
inhibition at 0.01 µM: 70%
inhibition at 0.02 µM: 86%

COc1ccc(-c2cc(F)ccc2CN2CCP(=O)(O)[C@](CCCCN)(C(=O)O)C2)cc1 [Example 187, (3S)-3-(4-AMINOBUTYL)-1-[[4-FLUORO-2-(4-METHOXYPHENYL)PHENYL]-METHYL]-4-HYDROXY-4-OXO-1,4-AZAPHOSPHINANE-3-CARBOXYLIC ACID]
inhibition at 0.01 µM: 74%
inhibition at 0.02 µM: 97%

COc1cc(-c2cc(F)ccc2CN2CCP(=O)(O)[C@](CCCCN)(C(=O)O)C2)ccc1F [Example 201, (3S)-3-(4-AMINOBUTYL)-1-[[4-FLUORO-2-(4-FLUORO-3-METHOXYPHENYL)-PHENYL]METHYL]-4-HYDROXY-4-OXO-1,4-AZAPHOSPHINANE-3-CARBOXYLIC ACID]
inhibition at 0.01 µM: 69%
inhibition at 0.02 µM: 84%

COc1cc(-c2cc(F)ccc2CN2CCP(=O)(O)[C@](CCCCN)(C(=O)O)C2)ccn1 [Example 221, (3S)-3-(4-AMINOBUTYL)-1-[[4-FLUORO-2-(2-METHOXYPYRIDIN-4-YL)PHENYL]-METHYL]-4-HYDROXY-4-OXO-1,4-AZAPHOSPHINANE-3-CARBOXYLIC ACID]
inhibition at 0.01 µM: 75%
inhibition at 0.02 µM: 88%

COc1ccc(-c2cc(F)ccc2CN2CCP(=O)(O)[C@](CCCCN)(C(=O)O)C2)cn1 [Example 239, (3S)-3-(4-AMINOBUTYL)-1-[[4-FLUORO-2-(6-METHOXYPYRIDIN-3-YL)PHENYL]-METHYL]-4-HYDROXY-4-OXO-1,4-AZAPHOSPHINANE-3-CARBOXYLIC ACID]
inhibition at 0.01 µM: 85%
inhibition at 0.02 µM: 96%

Cc1ccc(-c2ccccc2CN2CCP(=O)(O)[C@](CCCCN)(C(=O)O)C2)cc1 [Example 188, (3S)-3-(4-AMINOBUTYL)-4-HYDROXY-1-[[2-(4-METHYLPHENYL)PHENYL]-METHYL]-4-OXO-1,4-AZAPHOSPHINANE-3-CARBOXYLIC ACID]
inhibition at 0.01 µM: 64%
inhibition at 0.02 µM: 86%

NCCCC[C@@]1(C(=O)O)CN(Cc2ccc(F)cc2-c2cnc3ccccn23)CCP1(=O)O [Example 220, (3S)-3-(4-AMINOBUTYL)-1-[(4-FLUORO-2-IMIDAZO[1,2-A]PYRIDIN-3-YLPHENYL)METHYL]-4-HYDROXY-4-OXO-1,4-AZAPHOSPHINANE-3-CARBOXYLIC ACID]
inhibition at 0.01 µM: 83%
inhibition at 0.02 µM: 97%

NCCCC[C@@]1(C(=O)O)CN(Cc2ccc(F)cc2-c2cccc(O)c2)CCP1(=O)O [Example 238, (3S)-3-(4-AMINOBUTYL)-1-[[4-FLUORO-2-(3-HYDROXYPHENYL)PHENYL]-METHYL]-4-HYDROXY-4-OXO-1,4-AZAPHOSPHINANE-3-CARBOXYLIC ACID]
inhibition at 0.01 µM: 70%
inhibition at 0.02 µM: 87%

NCCCC[C@@]1(C(=O)O)CN(Cc2ccc(F)cc2-c2ccccc2Cl)CCP1(=O)O [Example 206, (3S)-3-(4-AMINOBUTYL)-1-[[2-(2-CHLOROPHENYL)-4-FLUOROPHENYL]METHYL]-4-HYDROXY-4-OXO-1,4-AZAPHOSPHINANE-3-CARBOXYLIC ACID]
inhibition at 0.01 µM: 67%
inhibition at 0.02 µM: 80%

NCCCC[C@@]1(C(=O)O)CN(Cc2ccccc2-c2cnc3ccccn23)CCP1(=O)O [Example 237, (3S)-3-(4-AMINOBUTYL)-4-HYDROXY-1-[(2-IMIDAZO[1,2-A]PYRIDIN-3-YLPHENYL)METHYL]-4-OXO-1,4-AZAPHOSPHINANE-3-CARBOXYLIC ACID]
inhibition at 0.01 µM: 77%
inhibition at 0.02 µM: 84%

COc1ccc(-c2ccccc2CN2CCP(=O)(O)[C@](CCCCN)(C(=O)O)C2)cn1 [Example 196, (3S)-3-(4-AMINOBUTYL)-4-HYDROXY-1-[2-(6-METHOXYPYRIDIN-3-YL)BENZYL]-4-OXO-1,4-AZAPHOSPHINANE-3-CARBOXYLIC ACID]
inhibition at 0.01 µM: 77%
inhibition at 0.02 µM: 91%

NCCCC[C@@]1(C(=O)O)CN(Cc2ccc(Cl)cc2-c2ccc(F)cc2)CCP1(=O)O [Example 210, (3S)-3-(4-AMINOBUTYL)-1-[[4-CHLORO-2-(4-FLUOROPHENYL)PHENYL]METHYL]-4-HYDROXY-4-OXO-1,4-AZAPHOSPHINANE-3-CARBOXYLIC ACID]
inhibition at 0.01 µM: 71%
inhibition at 0.02 µM: 79%

NCCCC[C@@]1(C(=O)O)CN(Cc2ccccc2-c2cccs2)CCP1(=O)O [Example 183, (3S)-3-(4-AMINOBUTYL)-4-HYDROXY-4-OXO-1-[(2-THIOPHEN-2-YLPHENYL)-METHYL]-1,4-AZAPHOSPHINANE-3-CARBOXYLIC ACID]
inhibition at 0.01 µM: 73%
inhibition at 0.02 µM: 88%
